As usually defined, the EC50 is the midpoint of the concentration-response curve.

The values below come from patent US8574563B2 (Bristol-Myers Squibb Company, priority 2006, dated 2013).

SMILES strings stand for the structures.

One assay has as its system HCV 1b-377-neo replicon cells. In words: HCV replicon assay, HCV 1b-377-neo replicon cells (1b FRET). The class given is cell-based, Hepatitis C virus genotype 1b. Conditions: HCV 1b-377-neo replicon cells; HCV 1b genotype. The procedure, abridged: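 FRET-based replicon assay in HCV 1b-377-neo cells, including a comparison line carrying the NS5A Y2065H mutation that confers resistance to a reference compound.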
In general terms: Replicon systems follow genome replication, usually without infectious particles.
`COC(=O)N[C@@H](C(=O)N1CCC[C@H]1c1ncc(-c2ccc(-c3ccc(-c4cnc([C@@H]5CCCN5C(=O)Cc5ccccc5OC)[nH]4)cc3)cc2)[nH]1)c1ccccc1` [Example 84-65, methyl ((1R)-2-((2S)-2-(5-(4′-(2-((2S)-1-((2-methoxyphenyl)acetyl)-2-pyrrolidinyl)-1H-imidazol-5-yl)-4-biphenylyl)-1H-imidazol-2-yl)-1-pyrrolidinyl)-2-oxo-1-phenylethyl)carbamate]: the “EC50 range against HCV 1b (Table 2, Range)” value is listed as “C-D”.

Still in this assay, the particulars now being: Hepatitis C virus, HCV 1b-377-neo replicon cells; HCV 1b genotype; read-out: EC50 range against HCV 1b (Table 2, Range).
In the case of `COC(=O)N[C@@H](C)C(=O)N1CCC[C@H]1c1ncc(-c2cnc(-c3ccc(-c4[nH]c([C@@H]5CCCN5C(=O)[C@H](C)NC(=O)OC)nc4C(F)(F)F)cc3)nc2)[nH]1` [Example J50, methyl ((1S)-2-((2S)-2-(5-(4-(5-(2-((2S)-1-(N-(methoxycarbonyl)-L-alanyl)-2-pyrrolidinyl)-1H-imidazol-5-yl)-2-pyrimidinyl)phenyl)-4-(trifluoromethyl)-1H-imidazol-2-yl)-1-pyrrolidinyl)-1-methyl-2-oxoethyl)carbamate], the EC50 was 0.001 to 0.999 nM.

Regarding `CCN[C@@H](C(=O)N1CCC[C@H]1c1nc(-c2ccc(-c3ccc(-c4cnc([C@@H]5CCCN5C(=O)[C@H](NCC)c5ccccc5)[nH]4)cc3)cc2)c[nH]1)c1ccccc1` [Example F14, (1R)-N-ethyl-2-((2S)-2-(4-(4′-(2-((2S)-1-((2R)-2-(ethylamino)-2-phenylacetyl)-2-pyrrolidinyl)-1H-imidazol-5-yl)-4-biphenylyl)-1H-imidazol-2-yl)-1-pyrrolidinyl)-2-oxo-1-phenylethanamine], the EC50 lay in the range of 0.001 to 0.999 nM. Same read-out and setting: next, `COC(=O)N[C@@H](CC(=O)N(C)C)C(=O)N1CCC[C@H]1c1ncc(-c2ccc(-c3ccc(-c4cnc([C@@H]5CCCN5C(=O)[C@@H](NC(=O)OC)C(C)C)[nH]4)cc3)cc2)[nH]1` [Example M113, methyl ((1S)-3-(dimethylamino)-1-(((2S)-2-(5-(4′-(2-((2S)-1-((2S)-2-((methoxycarbonyl)amino)-3-methylbutanoyl)-2-pyrrolidinyl)-1H-imidazol-5-yl)-4-biphenylyl)-1H-imidazol-2-yl)-1-pyrrolidinyl)carbonyl)-3-oxopropyl)carbamate]: 1 to 99 nM; `CCN(CC)[C@@H](C(=O)N1CCC[C@H]1c1ncc(-c2ccc(-c3ncc(-c4c[nH]c([C@@H]5CCCN5C(=O)[C@H](C)NC(=O)OC)n4)cn3)cc2)[nH]1)c1ccccc1` [Example D77, methyl ((1S)-2-((2S)-2-(5-(2-(4-(2-((2S)-1-((2R)-2-(diethylamino)-2-phenylacetyl)-2-pyrrolidinyl)-1H-imidazol-5-yl)phenyl)-5-pyrimidinyl)-1H-imidazol-2-yl)-1-pyrrolidinyl)-1-methyl-2-oxoethyl)carbamate]: 0.001 to 0.999 nM; `COC(=O)N[C@@H](Cc1cn(Cc2ccccc2)cn1)C(=O)N1CCC[C@H]1c1ncc(-c2ccc(-c3ccc(-c4cnc([C@@H]5CCCN5C(=O)[C@@H](NC(=O)OC)C(C)C)[nH]4)cc3)cc2)[nH]1` [cj-76, methyl ((1S)-1-(((2S)-2-(5-(4′-(2-((2S)-1-((2S)-3-(1-benzyl-1H-imidazol-4-yl)-2-((methoxycarbonyl)amino)propanoyl)-2-pyrrolidinyl)-1H-imidazol-5-yl)-4-biphenylyl)-1H-imidazol-2-yl)-1-pyrrolidinyl)carbonyl)-2-methylpropyl)carbamate]: 0.001 to 0.999 nM. Take `COC(=O)N[C@@H](C(=O)N1CCC[C@H]1c1ncc(-c2ccc(-c3ccc(-c4cnc([C@@H]5CCCN5C(=O)Cc5cccnc5)[nH]4)cc3C)cc2)[nH]1)c1ccccc1` [Example 127, methyl ((1R)-2-((2S)-2-(5-(2′-methyl-4′-(2-((2S)-1-(3-pyridinylacetyl)-2-pyrrolidinyl)-1H-imidazol-5-yl)-4-biphenylyl)-1H-imidazol-2-yl)-1-pyrrolidinyl)-2-oxo-1-phenylethyl)carbamate]: the EC50 lay within 0.001 to 0.999 nM.

Turning to `CCN(CC)[C@@H](C(=O)N1CCC[C@H]1c1ncc(-c2ccc(-c3ccc(-c4cnc([C@@H]5CCCN5C(=O)[C@@H](C)NC(=O)OC)[nH]4)cc3)cc2)[nH]1)c1ccccc1` [Example M53, methyl ((1R)-2-((2S)-2-(5-(4′-(2-((2S)-1-((2R)-2-(diethylamino)-2-phenylacetyl)-2-pyrrolidinyl)-1H-imidazol-5-yl)-4-biphenylyl)-1H-imidazol-2-yl)-1-pyrrolidinyl)-1-methyl-2-oxoethyl)carbamate], the EC50 lay within 1 to 99 nM.

Regarding `CN1CCN(C(C(=O)N2CCC[C@H]2c2ncc(-c3ccc(-c4ccc(-c5cnc([C@@H]6CCCN6C(=O)[C@@H](c6ccccc6)N6CCCC6)[nH]5)cc4)cc3)[nH]2)c2ccccc2)CC1` (stereo partly drawn) [Example 98, 1-methyl-4-(2-oxo-1-phenyl-2-((2S)-2-(5-(4′-(2-((2S)-1-((2R)-2-phenyl-2-(1-pyrrolidinyl)acetyl)-2-pyrrolidinyl)-1H-imidazol-5-yl)-4-biphenylyl)-1H-imidazol-2-yl)-1-pyrrolidinyl)ethyl)piperazine], the EC50 was 0.001 to 0.999 nM. The same measure, in the same setting: next, `COC(=O)N[C@@H](C(=O)N1CCC[C@H]1c1ncc(-c2ccc(-c3ccc(-c4cnc([C@@H]5CCCN5C(=O)C5(C(F)(F)F)CC5)[nH]4)cc3)cc2)[nH]1)c1ccccc1` [Example 84-32, methyl ((1R)-2-oxo-1-phenyl-2-((2S)-2-(5-(4′-(2-((2S)-1-((1-(trifluoromethyl)cyclopropyl)carbonyl)-2-pyrrolidinyl)-1H-imidazol-5-yl)-4-biphenylyl)-1H-imidazol-2-yl)-1-pyrrolidinyl)ethyl)carbamate]: 0.001 to 0.999 nM; `CCOC(=O)N[C@H](C)C(=O)N1CCC[C@H]1c1ncc(-c2ccc(-c3ccc(-c4cnc([C@@H]5CCCN5C(=O)[C@@H](C)NC(=O)OCC)[nH]4)cc3)cc2)[nH]1` [Example M4, ethyl ((1R)-2-((2S)-2-(5-(4′-(2-((2S)-1-(N-(ethoxycarbonyl)-D-alanyl)-2-pyrrolidinyl)-1H-imidazol-5-yl)-4-biphenylyl)-1H-imidazol-2-yl)-1-pyrrolidinyl)-1-methyl-2-oxoethyl)carbamate]: 100 to 999 nM; `COC(=O)N[C@H](C(=O)N1CCC[C@H]1c1ncc(-c2ccc(-c3ccc(-c4cnc([C@@H]5CCCN5C(=O)[C@@H](NC(=O)OC)C(C)C)[nH]4)c(F)c3)cc2F)[nH]1)C(C)C` [Example D58, methyl ((1S)-1-(((2S)-2-(5-(3,3′-difluoro-4′-(2-((2S)-1-((2S)-2-((methoxycarbonyl)amino)-3-methylbutanoyl)-2-pyrrolidinyl)-1H-imidazol-5-yl)-4-biphenylyl)-1H-imidazol-2-yl)-1-pyrrolidinyl)carbonyl)-2-methylpropyl) carbamate]: 0.001 to 0.999 nM. Still for that read-out and setting: next, `CN1C[C@H](F)C[C@H]1C(=O)N[C@@H](C(=O)N1CCC[C@H]1c1ncc(-c2ccc(-c3ccc(-c4cnc([C@@H]5CCCN5C(=O)[C@@H]5CCCO5)[nH]4)cc3)cc2)[nH]1)c1ccccc1` [Example 116, (4R)-4-fluoro-1-methyl-N-((1R)-2-oxo-1-phenyl-2-((2S)-2-(5-(4′-(2-((2S)-1-((2S)-tetrahydro-2-furanylcarbonyl)-2-pyrrolidinyl)-1H-imidazol-5-yl)-4-biphenylyl)-1H-imidazol-2-yl)-1-pyrrolidinyl)ethyl)-L-prolinamide]: 0.001 to 0.999 nM; `CN(C)CC(=O)N[C@@H](C(=O)N1CCC[C@H]1c1ncc(-c2ccc(-c3ccc(-c4cnc([C@@H]5CCCN5C(=O)[C@H](NC(=O)CN(C)C)c5ccccc5)[nH]4)cc3)cc2)[nH]1)c1ccccc1` [Example 25-5, N,N′-(4,4′-biphenyldiylbis(1H-imidazole-5,2-diyl(2S)-2,1-pyrrolidinediyl((1R)-2-oxo-1-phenyl-2,1-ethanediyl)))bis(2-(dimethylamino)acetamide)]: 0.001 to 0.999 nM. Still for that read-out and setting: the value for `O=C(Cc1cccnc1)N[C@@H](C(=O)N1CCC[C@H]1c1ncc(-c2ccc(-c3ccc(-c4c[nH]c([C@@H]5CCCN5C(=O)[C@H]5CCCO5)n4)cc3)cc2)[nH]1)c1ccccc1` [Example 120-7, N-((1R)-2-oxo-1-phenyl-2-((2S)-2-(5-(4′-(2-((2S)-1-((2R)-tetrahydro-2-furanylcarbonyl)-2-pyrrolidinyl)-1H-imidazol-4-yl)-4-biphenylyl)-1H-imidazol-2-yl)-1-pyrrolidinyl)ethyl)-2-(3-pyridinyl)acetamide] was 0.001 to 0.999 nM; that for `COC(=O)N[C@H](C)C(=O)N1CCC[C@H]1c1ncc(-c2ccc(-c3ccc(-c4cnc([C@@H]5CCCN5C(=O)[C@@H](C)NC(=O)OC)[nH]4)cc3)cc2)[nH]1` [Example M18, methyl ((1R)-2-((2S)-2-(5-(4′-(2-((2S)-1-(N-(methoxycarbonyl)-D-alanyl)-2-pyrrolidinyl)-1H-imidazol-5-yl)-4-biphenylyl)-1H-imidazol-2-yl)-1-pyrrolidinyl)-1-methyl-2-oxoethyl)carbamate] was 1000 to 10000 nM. `CCN(CC)[C@@H](C(=O)N1C[C@@H](F)C[C@H]1c1ncc(-c2ccc(-c3ccc(-c4cnc([C@@H]5C[C@H](F)CN5C(=O)[C@@H](NC(=O)OC)C(C)C)[nH]4)cc3)cc2)[nH]1)c1ccccc1` [JG-15, methyl ((1S)-1-(((2S,4S)-2-(5-(4′-(2-((2S,4S)-1-((2R)-2-(diethylamino)-2-phenylacetyl)-4-fluoro-2-pyrrolidinyl)-1H-imidazol-5-yl)-4-biphenylyl)-1H-imidazol-2-yl)-4-fluoro-1-pyrrolidinyl)carbonyl)-2-methylpropyl)carbamate]: the EC50 was in the range of 0.001 to 0.999 nM. Consider `COC(=O)N[C@@H](C)C(=O)N1C[C@H](F)C[C@H]1c1ncc(-c2ccc(-c3ccc(-c4cnc([C@@H]5C[C@@H](F)CN5C(=O)[C@H](C)NC(=O)OC)[nH]4)cc3)cc2)[nH]1` [JG-3, methyl ((1S)-2-((2S,4R)-4-fluoro-2-(5-(4′-(2-((2S,4R)-4-fluoro-1-(N-(methoxycarbonyl)-L-alanyl)-2-pyrrolidinyl)-1H-imidazol-5-yl)-4-biphenylyl)-1H-imidazol-2-yl)-1-pyrrolidinyl)-1-methyl-2-oxoethyl)carbamate], for which the EC50 fell in the range of 0.001 to 0.999 nM.
